From ChEMBL document CHEMBL4359850, “Synthesis, in vivo and in silico anticonvulsant activity studies of new derivatives of 2-(2,4-dioxo-1,4-dihydroquinazolin-3(2H)-yl)acetamide” (Eur J Med Chem, 2019) come the findings set out here.

The test system of series [1] is Mus musculus. Description: Anticonvulsive activity in pentylenetetrazole-induced seizure albino mouse model assessed as latecy time at 100 mg/kg, ig administered 30 mins prior to pentylenetetrazole challenge and mesured for 60 mins (reference value: 5.79 +/- 0.58 min). The format is functional.
In series [2] the test system is Mus musculus. The series is described as follows: Anticonvulsive activity in pentylenetetrazole-induced seizure albino mouse model assessed as lethality at 100 mg/kg, ig administered 30 mins prior to pentylenetetrazole challenge and mesured for 60 mins (reference value: 91.7%). The series is classed as functional.
Series [3] relates to Mus musculus. Description: Anticonvulsive activity in pentylenetetrazole-induced seizure albino mouse model assessed as duration time of convulsion period at 100 mg/kg, ig administered 30 mins prior to pentylenetetrazole challenge and mesured for 60 mins (reference value: 12 +/- 1.34 min). The series is classed as functional.
In series [4] the test system is Mus musculus. Description: Anticonvulsive activity in pentylenetetrazole-induced seizure albino mouse model assessed as decrease in severity of convulsion at 100 mg/kg, ig administered 30 mins prior to pentylenetetrazole challenge and mesured for 60 mins relative to control. The series is classed as functional.
Series [5] can be described thus: Acute toxicity in albino mouse assessed as death at 1000 to 5000 mg/kg, ig measured for 14 days. The format is organism-based. To be noted: in vivo, po, 336 h.
Series [6] has as its system Mus musculus. The series is described as follows: Anticonvulsive activity in pentylenetetrazole-induced seizure albino mouse model assessed as decrease in duration of convulsive period at 100 mg/kg, ig administered 30 mins prior to pentylenetetrazole challenge and mesured for 60 mins relative to control. The series is classed as functional.
A short description of series [7]: Acute toxicity in albino mouse assessed as lateral position at 1000 to 5000 mg/kg, ig measured for 14 days. The series is classed as organism-based. The settings on record: in vivo, po, 336 h.
Series [8] is described as follows: Acute toxicity in albino mouse assessed as effect on muscle movement at 1000 to 5000 mg/kg, ig measured for 14 days. The format is organism-based. The settings on record: in vivo, po, 336 h.
The subject of series [9] is Mus musculus. Description: Anticonvulsive activity in albino mouse assessed as protection against pentylenetetrazole-induced seizure by measuring severity of convulsion at 100 mg/kg, ig administered 30 mins prior to pentylenetetrazole challenge and mesured for 60 mins (reference value: 5.83 +/- 0.17). The series is classed as functional.
The nature of series [10]: Toxicity in albino mouse assessed as motor coordination impairment by measuring animal fall-off from rod before 5 mins at 100 mg/kg, ig administered 30 mins prior to test by rotarod test (reference value: 50%). The series is classed as organism-based. To be noted: in vivo, po.
The nature of series [11]: Acute toxicity in albino mouse assessed as decrease in motor activity at 3000 to 5000 mg/kg, ig measured after 30 mins to 1 hr. To be noted: in vivo, po. The format is organism-based.
Series [12] relates to Mus musculus. Description: Anticonvulsive activity in pentylenetetrazole-induced seizure albino mouse model assessed as proportion of animals with tonic convulsion at 100 mg/kg, ig administered 30 mins prior to pentylenetetrazole challenge and mesured for 60 mins (reference value: 100%). The series is classed as functional.
A short description of series [13]: Acute toxicity in albino mouse assessed as blepharoptosis at 1000 to 5000 mg/kg, ig measured for 14 days. To be noted: in vivo, po, 336 h. The format is organism-based.
For series [14], the system named is Mus musculus. Description: Anticonvulsive activity in pentylenetetrazole-induced seizure albino mouse model assessed as number of clonic and tonic convulsion at 100 mg/kg, ig administered 30 mins prior to pentylenetetrazole challenge and mesured per animal for 60 mins (reference value: 3.58 +/- 0.42). The format is functional.
The nature of series [15]: Toxicity in albino mouse assessed as motor coordination impairment by measuring animal fall-off from rod before 2 mins at 100 mg/kg, ig administered 30 mins prior to test by rotarod test (reference value: 33%). To be noted: in vivo, po. The format is organism-based.
Series [16] is described as follows: Acute toxicity in albino mouse assessed as diarrhoea at 1000 to 5000 mg/kg, ig measured for 14 days. To be noted: in vivo, po, 336 h. The series is classed as organism-based.
Series [17] can be described thus: Acute toxicity in albino mouse assessed as hypersalivation at 1000 to 5000 mg/kg, ig measured for 14 days. To be noted: in vivo, po, 336 h. The format is organism-based.
Series [18] in a line: Acute toxicity in albino mouse assessed as effect on skeletal muscle tone at 1000 to 5000 mg/kg, ig measured for 14 days. To be noted: in vivo, po, 336 h. The series is classed as organism-based.
The nature of series [19]: Toxicity in albino mouse assessed as motor coordination impairment by measuring animal fall-off from rod before 1 min at 100 mg/kg, ig administered 30 mins prior to test by rotarod test (reference value: 17%). To be noted: in vivo, po. The format is organism-based.
The nature of series [20]: Toxicity in albino mouse assessed as motor coordination impairment by measuring animal fall-off from rod before 3 mins at 100 mg/kg, ig administered 30 mins prior to test by rotarod test (reference value: 33%). The format is organism-based. To be noted: in vivo, po, 0.05 h.
Series [21] is described as follows: Acute toxicity in ig dosed albino mouse measured for 14 days. The settings on record: in vivo, po. The series is classed as organism-based.
For series [22], the system named is Mus musculus. Description: Anticonvulsive activity in pentylenetetrazole-induced seizure albino mouse model assessed as proportion of animals with clonic convulsion at 100 mg/kg, ig administered 30 mins prior to pentylenetetrazole challenge and mesured for 60 mins (reference value: 100 %). The series is classed as functional.
The test system of series [23] is Mus musculus. The series is described as follows: Anticonvulsive activity in pentylenetetrazole-induced seizure albino mouse model assessed as lengthened latecy of convulsion at 100 mg/kg, ig administered 30 mins prior to pentylenetetrazole challenge and mesured for 60 mins relative to control. The format is functional.
Series [24] deals with Mus musculus. Description: Anticonvulsive activity in pentylenetetrazole-induced seizure albino mouse model assessed as lifetime of animal to death at 100 mg/kg, ig administered 30 mins prior to pentylenetetrazole challenge and mesured for 60 mins (reference value: 17.45 +/- 1.85 min). The series is classed as functional.
For series [25], the system named is Mus musculus. The series is described as follows: Anticonvulsive activity in pentylenetetrazole-induced seizure albino mouse model assessed as decrease in time of death at 100 mg/kg, ig administered 30 mins prior to pentylenetetrazole challenge and mesured for 60 mins relative to control. The format is functional.
Series [26] relates to Mus musculus. Description: Anticonvulsive activity in pentylenetetrazole-induced seizure albino mouse model assessed as proportion of animals with tonic convulsion at 300 mg/kg, ig administered 30 mins prior to pentylenetetrazole challenge and mesured for 60 mins (reference value: 100%). The format is functional.
Series [27] concerns Mus musculus. Description: Anticonvulsive activity in pentylenetetrazole-induced seizure albino mouse model assessed as latency time at 300 mg/kg, ig administered 30 mins prior to pentylenetetrazole challenge and mesured for 60 mins (reference value: 5.79 +/- 0.58 min). The series is classed as functional.
Series [28] can be described thus: Toxicity in albino mouse assessed as motor coordination impairment by measuring animal fall-off from rod before 1 min at 300 mg/kg, ig administered 30 mins prior to test by rotarod test (reference value: 17%). The format is organism-based. The settings on record: in vivo, po.
Series [29] has as its system Mus musculus. Description: Anticonvulsive activity in pentylenetetrazole-induced seizure albino mouse model assessed as duration time of convulsion period at 300 mg/kg, ig administered 30 mins prior to pentylenetetrazole challenge and mesured for 60 mins (reference value: 12 +/- 1.34 min). The series is classed as functional.
Series [30] in a line: Toxicity in albino mouse assessed as motor coordination impairment by measuring animal fall-off from rod before 5 mins at 300 mg/kg, ig administered 30 mins prior to test by rotarod test (reference value: 50%). The format is organism-based. To be noted: in vivo, po.
Series [31] has as its system Mus musculus. The series is described as follows: Anticonvulsive activity in albino mouse assessed as protection against pentylenetetrazole-induced seizure by measuring severity of convulsion at 300 mg/kg, ig administered 30 mins prior to pentylenetetrazole challenge and mesured for 60 mins (reference value: 5.83 +/- 0.17). The series is classed as functional.
Series [32] is described as follows: Toxicity in albino mouse assessed as motor coordination impairment by measuring animal fall-off from rod before 2 mins at 300 mg/kg, ig administered 30 mins prior to test by rotarod test (reference value: 33%). The series is classed as organism-based. The settings on record: in vivo, po.
For series [33], the system named is Mus musculus. Description: Anticonvulsive activity in pentylenetetrazole-induced seizure albino mouse model assessed as proportion of animals with clonic convulsion at 300 mg/kg, ig administered 30 mins prior to pentylenetetrazole challenge and mesured for 60 mins (reference value: 100 %). The series is classed as functional.
Series [34] has as its system Mus musculus. The series is described as follows: Anticonvulsive activity in pentylenetetrazole-induced seizure albino mouse model assessed as lethality at 300 mg/kg, ig administered 30 mins prior to pentylenetetrazole challenge and mesured for 60 mins (reference value: 91.7%). The format is functional.
Series [35] concerns Mus musculus. Description: Anticonvulsive activity in pentylenetetrazole-induced seizure albino mouse model assessed as lifetime of animal to death at 300 mg/kg, ig administered 30 mins prior to pentylenetetrazole challenge and mesured for 60 mins (reference value: 17.45 +/- 1.85 min). The series is classed as functional.
Series [36] is described as follows: Toxicity in albino mouse assessed as motor coordination impairment by measuring animal fall-off from rod before 3 mins at 300 mg/kg, ig administered 30 mins prior to test by rotarod test (reference value: 33%). The series is classed as organism-based. The settings on record: in vivo, po, 0.05 h.
In series [37] the test system is Mus musculus. Description: Anticonvulsive activity in pentylenetetrazole-induced seizure albino mouse model assessed as number of clonic and tonic convulsion at 300 mg/kg, ig administered 30 mins prior to pentylenetetrazole challenge and mesured per animal for 60 mins (reference value: 3.58 +/- 0.42). The series is classed as functional.

Regarding `O=C(Cn1c(=O)[nH]c2ccccc2c1=O)NCc1ccc(Cl)cc1Cl`, the Time was determined as 20.38 min in series [1] and 0.45 min in series [3]. Moreover, the Activity in series [2] is 0%; in series [5], “Non-Toxic”; in [7], “Non-Toxic”; in series [8], “Non-Toxic”; in series [9], 2.8; in series [10] it was 67%. The Activity result in [11] is reported as “Toxic”; in [12], 40%; in series [13] it was “Non-Toxic”; in series [14], 1; in [15] it was 50%; in [16], “Non-Toxic”. The Activity entry in [17] is “Non-Toxic”; in [18], “Non-Toxic”; in series [19], 17%; in [20], 50%; in [22], 80%. Further, the results for the “fold change (FC)” value in series [4], in series [6] and in [23] were 2.1, 26.7 and 3.5, respectively. This compound showed an LD50 at 336 h in series [21] greater than 5000 mg/kg.

Consider `O=C(Cn1c(=O)[nH]c2ccccc2c1=O)NCc1ccc(Cl)cc1`, for which the Time in series [1] is recorded as 4.82 min; in series [3] it was 4.54 min; in series [24] it was 9.36 min. Also, the Activity stood at 6 in series [9]; 83% in series [10]; 100% in [12]; 2 in series [14]; 67% in series [15]; 50% in [19]. For the same compound, the Activity was 67% in series [20] and 100% in series [22]. Moreover, the “fold change (FC)” value in [25] came to 1.9.

With `COc1ccccc1CNC(=O)Cn1c(=O)[nH]c2ccccc2c1=O`, the figures for the Time in [1], in [3] and in series [24] were 15.14 min, 7.25 min and 12.45 min, respectively. The Activity came to 60% in [2]; 4.4 in series [9]; 83% in series [10]; 80% in series [12]; 2.4 in series [14]; 67% in series [15]. Also, the results for the Activity in series [19], in series [20] and in series [22] were 50%, 67% and 80%, respectively.

Turning to `CCCC(CCC)C(=O)[O-].[Na+]` [VALPROATE SODIUM], the Activity in [26] is listed as 50%; in series [28], 50%; in [30], 100%; in series [31], 2.83; in series [32], 67%; in series [33] it was 66.7%. The Activity came out at 16.7% in series [34], 83% in series [36] and 2 in series [37]. Further, the Time worked out at 26.65 min in series [27], 7.64 min in series [29] and 20.9 min in series [35].
